Molecular target: ATP-dependent translocase ABCB1 (Homo sapiens, UniProt P08183)
Assay: TP_TRANSPORTER: transepithelial transport of cyclosporin A in Caco-2 cells
Format: functional, cell-based

Sequence of ATP-dependent translocase ABCB1 (P08183 whole entry): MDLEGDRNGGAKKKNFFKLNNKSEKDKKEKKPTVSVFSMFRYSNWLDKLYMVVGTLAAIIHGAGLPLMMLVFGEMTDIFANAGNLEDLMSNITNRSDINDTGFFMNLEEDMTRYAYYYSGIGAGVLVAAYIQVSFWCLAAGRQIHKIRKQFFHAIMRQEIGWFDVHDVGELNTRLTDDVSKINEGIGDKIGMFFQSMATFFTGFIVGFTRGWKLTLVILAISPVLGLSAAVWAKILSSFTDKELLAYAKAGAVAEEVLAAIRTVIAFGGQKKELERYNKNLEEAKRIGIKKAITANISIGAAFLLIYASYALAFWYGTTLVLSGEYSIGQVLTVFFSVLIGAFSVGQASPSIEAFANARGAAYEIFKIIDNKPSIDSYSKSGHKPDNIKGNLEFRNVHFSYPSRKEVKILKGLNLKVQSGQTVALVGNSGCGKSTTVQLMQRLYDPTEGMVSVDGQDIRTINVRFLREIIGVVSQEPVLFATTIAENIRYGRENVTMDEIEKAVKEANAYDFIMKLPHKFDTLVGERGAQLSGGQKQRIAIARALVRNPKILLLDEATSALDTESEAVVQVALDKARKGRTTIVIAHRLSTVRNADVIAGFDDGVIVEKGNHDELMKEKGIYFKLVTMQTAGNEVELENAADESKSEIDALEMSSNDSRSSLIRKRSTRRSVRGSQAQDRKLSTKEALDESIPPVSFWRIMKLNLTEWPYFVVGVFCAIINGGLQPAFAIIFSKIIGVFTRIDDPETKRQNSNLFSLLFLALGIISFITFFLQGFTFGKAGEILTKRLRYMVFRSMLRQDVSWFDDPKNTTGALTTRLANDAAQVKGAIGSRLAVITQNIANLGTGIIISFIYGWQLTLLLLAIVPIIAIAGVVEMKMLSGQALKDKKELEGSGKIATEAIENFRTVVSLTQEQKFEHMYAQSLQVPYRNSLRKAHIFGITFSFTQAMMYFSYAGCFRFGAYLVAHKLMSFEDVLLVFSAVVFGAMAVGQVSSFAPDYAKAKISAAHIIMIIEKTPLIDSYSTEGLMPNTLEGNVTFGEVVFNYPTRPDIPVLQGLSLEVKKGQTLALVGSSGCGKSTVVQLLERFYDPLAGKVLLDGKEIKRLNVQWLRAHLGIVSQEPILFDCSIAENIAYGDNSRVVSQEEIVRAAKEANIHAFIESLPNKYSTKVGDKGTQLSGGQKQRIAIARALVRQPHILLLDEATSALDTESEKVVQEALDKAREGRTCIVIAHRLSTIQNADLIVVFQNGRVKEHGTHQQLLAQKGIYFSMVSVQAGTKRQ

Row | Sequence | Activity
1 | CREMOPHOR EL | inhibitor [+]
2 | CREMOPHOR RH 40 | inhibitor [+]

Source: ChEMBL document CHEMBL2074432, “Human jejunal permeability of cyclosporin A: influence of surfactants on P-glycoprotein efflux in Caco-2 cells” (Pharm Res, 2003)
